Patent US10117943B2, “Synthetic antibody mimetic compounds (SYAMS) targeting cancer, especially prostate cancer” (YALE UNIVERSITY, priority 2013, dated 2018)

Experiments:
RM1.PGLS cells [1] = experiment: Superoxide burst (lucigenin) by primed U937 cells against RM1.PGLS cells; assay type: cell-based; conditions: IFN-γ primed U937 effectors
Excerpt: Since SyAM-P1 was able to induce effector-cell mediated responses against target protein coated beads, the inventors then evaluated if the molecule can elicit the effects against PSMA expressing cells. To that end, the inventors evaluated the SyAM-P1 induced immune responses by primed U937 effector cells against PSMA expressing RM1.PGLS cells. They tested the U937-mediated immune effects by evaluating both superoxide burst and phagocytosis of effector cells, analogous to the protein coated bead experiments. In this experiment, IFN-γ primed U937 cells were incubated with PSMA expressing RM1.PGLS cells, and treated with various concentrations of SyAM-P1. The resulting superoxide burst response was measured using the lucigenin assay (data not shown). Additionally, primed U937 cells (stained with DiD, an FL4 membrane dye) were incubated with target RM1.PGLS cells (stained with […], an FL1 membrane dye), in the presence of various concentrations of SyAM-P 1. The resulting phagocytosis—indicated by FL1 and FL4 double positive cells—was measured using two-color flow-cytometry. As a positive control, ARM-P8 combined with anti-DNP antibodies was utilized. […] The positive response seen with the Arm-P8 control, could potentially be attributed to the ability of antibodies to ligate both FcγRI and FcγRIIA on the immune effector cells, increasing immune signaling and phagocytic responses.

RM1.PGLS cells [2] = experiment: Phagocytosis of PSMA expressing RM1.PGLS cells by IFN-γ primed U937 cells; assay type: cell-based; conditions: IFN-γ primed U937 effectors
Protocol: Target cell passing: Three days before the experiments, a plate of target cells, RM1.PGLS cells were passed into a new flask.
Effector cell priming: Three days before the experiments, a plate of U937 cells (approximately 60% confluent) was passed into a new Petri dish (10 mL colored ADCP media total volume). IFN-γ (20 μL, 100 μg/mL in DPBS) was added, and the cells were maintained in an incubator (37° C., 24 h). The cells were transferred into a Falcon tube, and DiD (19 uL, final concentration=1.9 μM) was added. The cells were maintained in an incubator (37° C., 30 min), pelleted, aspirated, resuspended in colored ADCP media (10 mL), and split equally into two Petri dishes. To each dish were added additional colored ADCP media (5 mL) and IFN-γ (20 μL, 100 μg/mL in DPBS), and the cells were maintained in an incubator (37° C., 24 h).
Target cell preparation: To a plate of target cells (60-80% confluent RM1.PGLS cells 10 mL total media volume) was added DiO (20 μL, final concentration=2 μM). The cells were maintained in an incubator (37° C., 30 min), aspirated, and washed with colored ADCP media (3×10 mL). Colored ADCP media (10 mL) was added. The cells were maintained in an incubator (37° C., 2 h), detached and resuspended in color-free ADCP media at a concentration of 0.5 million cells per mL.
Effector cell preparation: Both dishes of primed U937 cells were transferred into a Falcon tube, pelleted, aspirated, resuspended in color-free ADCP media (10 mL), counted, and diluted with color-free ADCP media to give a final concentration of 2 million cells per mL.
Phagocytosis: All conditions were run in triplicate. For each experiment, into a sterile 2 mL Eppendorf tube were added color-free ADCP media (25 μL) containing either various concentrations of SyAM-Px or ARM-P8/Anti-DNP antibody, target cells (25 μL=12,500 cells), and effector cells (50 μL=100,000 cells), to give an effector-to-target ratio of 8:1. Tubes were gently agitated by hand. The cells were pelleted (2 min, 1100 rpm). The tubes were opened, maintained in an incubator (37° C., 1 h), resuspended by briefly agitating with a vortex, and analyzed by flow cytometry.

PSMA on RM1.PGLS cells = biological target: T1, PSMA on RM1.PGLS cells (Homo sapiens, UniProt Q04609); experiment: Binding to PSMA on RM1.PGLS cells (flow cytometry); conditions: biotin-functionalized compound, fluorescent streptavidin
T1 construct: host or cells: RM1.PGLS cells
T1 sequence (Q04609 whole entry): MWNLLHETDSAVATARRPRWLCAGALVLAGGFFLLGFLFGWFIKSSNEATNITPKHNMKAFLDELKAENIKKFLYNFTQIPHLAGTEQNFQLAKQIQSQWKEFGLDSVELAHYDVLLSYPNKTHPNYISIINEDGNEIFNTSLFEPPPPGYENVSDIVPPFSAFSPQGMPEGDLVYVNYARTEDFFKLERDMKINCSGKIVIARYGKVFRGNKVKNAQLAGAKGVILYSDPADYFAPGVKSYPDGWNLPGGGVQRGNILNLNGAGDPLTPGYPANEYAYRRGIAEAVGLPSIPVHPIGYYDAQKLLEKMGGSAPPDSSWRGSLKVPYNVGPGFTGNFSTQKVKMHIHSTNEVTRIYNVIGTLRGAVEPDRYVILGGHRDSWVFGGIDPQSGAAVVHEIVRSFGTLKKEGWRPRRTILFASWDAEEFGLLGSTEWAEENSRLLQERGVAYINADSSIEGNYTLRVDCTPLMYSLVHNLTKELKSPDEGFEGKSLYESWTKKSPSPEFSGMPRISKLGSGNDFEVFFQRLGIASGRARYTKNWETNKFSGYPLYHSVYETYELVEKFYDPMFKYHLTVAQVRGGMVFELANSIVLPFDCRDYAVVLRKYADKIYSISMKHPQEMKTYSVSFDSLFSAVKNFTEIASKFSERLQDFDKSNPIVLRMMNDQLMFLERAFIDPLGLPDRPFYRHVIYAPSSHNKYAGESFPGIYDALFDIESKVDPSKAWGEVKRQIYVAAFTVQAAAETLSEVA
Excerpt: Accordingly, the inventors first synthesized the SyAM-P1 molecule, using Fmoc solid phase peptide synthesis to connect the two moieties (FIG. 2). As a consequence of that chemical synthesis the inventors tried to determine whether linking the two moieties would influence their ability to bind their respective protein targets, in a selective manner (FIG. 3A,B). The inventors thereafter evaluated the ability of the first-generation of SyAM-P molecules, identified as SyAM-P1, to bind PSMA on RM1.PGLS cells (FIG. 3A) or FcγRI on IIA1.6 cells (FIG. 3B). These experiments were conducted using SyAM-P1 molecules that were functionalized with biotin, and the bound SyAM-P1 was detected using a fluorescently labeled streptavidin, via flow-cytometry.
The binding of each SyAm derivative to PSMA was evaluated on PSMA-coated beads. 6 μm streptavidin labeled beads (Polysciences) were incubated with 400 μg/ml recombinant avi-tagged-PSMA protein for 30 minutes. Beads were washed twice with PBS, blocked with 1 mg/ml biotin for 30 minutes and then washed twice with TBS-A. 10^5 beads were incubated with a dilution series of SyAm ranging from 1 μM-100 pM. Streptavidin-Alexa467 (Invitrogen) was added to a final concentration of 3.3 μM. Samples were incubated on ice for 30 minutes, washed twice with DPBS, and evaluated by an Accuri C6 flow cytometer. […]

[3] = biological target: T2, FcγRI on IIA1.6 cells and soluble recombinant human PSMA (Homo sapiens, UniProt P12314+Q04609); experiment: Ternary complex formation between FcγRI expressing IIA1.6 cells and soluble PSMA; assay type: binding; conditions: probed with phycoerythrin anti-PSMA antibody
T2 construct: soluble recombinant human PSMA; Avi-tag; expressed in transfected cells; host or cells: IIA1.6 cells (FcγRI); PSMA added as soluble recombinant protein
T2 sequence (P12314 16-374): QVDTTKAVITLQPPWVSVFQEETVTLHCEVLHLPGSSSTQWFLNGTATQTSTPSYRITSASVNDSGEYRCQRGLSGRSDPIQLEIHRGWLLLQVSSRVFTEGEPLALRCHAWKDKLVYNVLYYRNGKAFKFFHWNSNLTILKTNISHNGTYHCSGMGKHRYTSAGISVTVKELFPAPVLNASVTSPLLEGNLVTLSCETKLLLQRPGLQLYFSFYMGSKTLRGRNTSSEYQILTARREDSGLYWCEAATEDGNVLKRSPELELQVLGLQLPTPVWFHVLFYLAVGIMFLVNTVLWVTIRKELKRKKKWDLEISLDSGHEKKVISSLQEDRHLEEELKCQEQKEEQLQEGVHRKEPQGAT
T2 sequence (Q04609 44-750 limits assumed): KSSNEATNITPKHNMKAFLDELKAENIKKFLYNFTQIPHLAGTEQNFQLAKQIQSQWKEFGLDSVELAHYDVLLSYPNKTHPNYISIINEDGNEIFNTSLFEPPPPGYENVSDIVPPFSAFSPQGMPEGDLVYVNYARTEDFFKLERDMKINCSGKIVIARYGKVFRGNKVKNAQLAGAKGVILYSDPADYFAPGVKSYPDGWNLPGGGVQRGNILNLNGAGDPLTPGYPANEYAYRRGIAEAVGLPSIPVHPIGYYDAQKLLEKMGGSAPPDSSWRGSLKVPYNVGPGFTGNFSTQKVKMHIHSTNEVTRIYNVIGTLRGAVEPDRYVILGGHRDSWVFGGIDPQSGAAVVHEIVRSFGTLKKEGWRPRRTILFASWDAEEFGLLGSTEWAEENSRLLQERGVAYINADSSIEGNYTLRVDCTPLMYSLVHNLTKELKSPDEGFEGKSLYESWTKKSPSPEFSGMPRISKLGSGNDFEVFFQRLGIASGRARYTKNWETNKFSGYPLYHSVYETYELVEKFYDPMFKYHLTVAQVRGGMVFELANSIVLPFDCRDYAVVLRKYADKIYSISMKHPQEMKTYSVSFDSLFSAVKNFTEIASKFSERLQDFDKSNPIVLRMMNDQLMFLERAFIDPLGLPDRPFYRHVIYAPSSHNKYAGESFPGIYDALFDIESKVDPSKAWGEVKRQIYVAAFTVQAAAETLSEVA
T2 sequence (P30273 19-86 partner): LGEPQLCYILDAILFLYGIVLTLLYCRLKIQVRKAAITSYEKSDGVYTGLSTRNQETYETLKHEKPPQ
Protocol: The inventors next evaluated SyAM-P1's ability to induce ternary complex formation, using soluble PSMA and FcγRI expressing cells (IIA1.6 cells) (FIG. 3c). The binding of PSMA to the cells was probed with a phycoerythrin anti-PSMA antibody, and was analyzed using flow cytometry.

FcγRI = biological target: T3, FcγRI (Homo sapiens, UniProt P12314); experiment: IIA1.6 FcγRI expressing cell binding assay; conditions: biotin-functionalized compound, fluorescent streptavidin
T3 construct: host or cells: IIA1.6 cells
T3 sequence (P12314 16-374): as the sequence (P12314 16-374) above
T3 sequence (P30273 19-86 partner): as the sequence (P30273 19-86 partner) above
Protocol: Peptide dilutions have been prepared in DMSO usually starting form 1 mM stock solution with further 10 fold dilution. Cells IIa1.6 stably transfected with FcγRIA/γ-chain and non-transfected IIa1.6 cells used as isogenic negative control, were grown to approximately 1.5-2×10^6 cells/mL density, spun down and reconstituted in RPMI 1640 medium without phenol red, supplemented with 10% FBS and Pen/Strep mixture to cell density 1×10^6 cells/mL. A 100 uL aliquot of cells was further transferred into an eppendorf tube and left to cool on ice for 5-10 minutes. Following this 1 uL of peptide dissolved in DMSO was added to the cells, bringing final concentration of DMSO to 1%. After 1 hour incubation on ice with a peptide 5 uL of Streptavidin-Alexafluor 488 (2 mg/mL) was added to the cells and left incubating on ice for 30-60 minutes. After the incubation cells were washed two times with 1 mL of cold RPMI1640 medium without phenol red, supplemented with 10% FBS and Pen/Strep and finally washed once in 1 mL TBS Buffer (150 mM NaCl and 25 mM Tris, pH 7.4). Cells were resuspended in residual TBS buffer (usually ˜100 uL) and analyzed via flow cytometry with detection in the FL1 channel.

PSMA coated beads = experiment: ROS production (superoxide burst, lucigenin) by primed U937 cells against PSMA coated beads; assay type: cell-based; conditions: PSMA labeled beads, target dependent
Protocol: Three days before the experiments, a plate of U937 cells (approximately 60% confluent) was passed into a new Petri dish (10 mL colored RPMI growth media total volume). IFN-γ (20 μL, 100 μg/mL in DPBS) was added, and the cells were maintained in an incubator (37° C., 24 h). The cells were pelleted after 24 hours and resuspended in 10 mL of IFN-γ (20 uL, 100 ug/mL in DPBS) and maintained in an incubator (37° C., 24 h)
For ROS production cells were resuspended in RPMI growth media (10 mL), and split equally into two Petri dishes. To each dish were added additional colored RPMI growth media (5 mL) and IFN-γ (20 μL, 100 μg/mL in DPBS), and maintained in an incubator (37° C., 24 h)
Primed U937 were suspended in color-free ADCP media at a concentration of 3×10^5 U937 cells and mixed with 10^5 PSMA coated beads and various concentrations of molecules in a 96 well plate in a volume of 90 uL. To each well was added 10 μl of 2.5 mM lucigenin (Tokyo Chemicals) solution to bring the total volume to 100 μl. The plate was centrifuged at 200 rcf for 2 minutes (PLATE SPINNER). The chemiluminescence was then measured at two minute intervals by plate reader (Biotek Synergy 2) for 60 to 90 minutes.

## CC(=O)N[C@H](C(=O)N[C@@H](CC(N)=O)C(=O)N[C@@H](CO)C(=O)N[C@H]1CSSC[C@@H](C(=O)NCC(=O)N[C@@H](CC(=O)O)C(=O)N[C@@H](CC(=O)O)C(=O)N[C@@H](CCCCNC(=O)CCCC[C@@H]2SC[C@@H]3NC(=O)N[C@@H]32)C(=O)NCCCCCC(=O)NCCCCCC(=O)NCCCCCC(=O)NCCCCCC(=O)NCCCCCC(=O)N[C@@H](CCCCNC(=O)CCCCc2cn(CCCC[C@H](NC(=O)N[C@@H](CCC(=O)O)C(=O)O)C(=O)O)nn2)C(=O)NCC(N)=O)NC(=O)CNC(=O)[C@H](CC(C)C)NC(=O)[C@H](CC(C)C)NC(=O)[C@H](CC(N)=O)NC(=O)[C@@H]2CCCN2C(=O)[C@H](CC(C)C)NC(=O)[C@H](CC(C)C)NC(=O)[C@H](CC(C)C)NC1=O)C(C)C [SyAM-P1]
RM1.PGLS cells [1]
  superoxide burst against RM1.PGLS cells (in words): unable to induce any immune responses
RM1.PGLS cells [2]
  phagocytosis of RM1.PGLS cells (in words): unable to induce any immune responses
PSMA on RM1.PGLS cells
  binding to PSMA on RM1.PGLS cells: capability to bind to its respective targets
[3]
  ternary complex formation: mediated through SyAM-P1
FcγRI
  binding to FcγRI on IIA1.6 cells: capability to bind to its respective targets
PSMA coated beads
  concentration at which superoxide burst is induced: 100 nM
